# Measured values published in patent publication US12358948B2, “Neurotensinergic agonists and methods of using same preventing or treating pain” (priority 2019, dated 2025).
# System: ileum
# Experiment: Ileum relaxation assay ex vivo
# Parameters: species or system rat
# Settings: 10^−11 to 10^−6 M, after contraction with carbachol
# Description: The functional ileum bioassay was carried out as described in detail elsewhere. (Van der Poorten, O., Van Den Hauwe, R., Eiselt, E., Betti, C., Guillemyn, K., Chung, N. N., Hall, F., Bihel, F., Schiller, P. W., Tourwé, D., Sarret, P., Gendron, L, . . . Ballet, S. (2017). X-Space Screening of Dermorphin-Based Tetrapeptides through Use of Constrained Arylazepinone and Quinolinone Scaffolds. ACS medicinal chemistry letters, 8(11), 1177-1182) Briefly, rats were euthanized, and 2 cm ileum segments were dissected out before removal of extraneous fat and connective tissue.
# The ileum was then mounted under 0.5-g tension in a 10 mL organ bath containing warmed (37° C.) and oxygenated (95% O2, 5% CO2) Krebs solution (6.9 g/L NaCl, 0.145 g/L MgSO4, 2.1 g/L NaHCO3, 0.35 g/L KCl, 0.165 g/L KH2PO4, 1.98 g/L dextrose and 0.28 g/L CaCl2)). […] Contractions of the muscle were recorded via an isometric force transducer (159901A, Radnoti, Monrovia, CA, USA). […]
# Each concentration of the compounds tested were followed by 2×15-min washout periods in Krebs solution to allow full relaxation. Dose-response curves were obtained with NT (8-13) (10^−11 to 10^−6) as standard for each ileum and for compound 34(10^−11 to 10^−5) and IC50 values were determined. […]
# Data are expressed as mean±standard errors of the mean (SEM). […]
smiles,measurement,value
"CC[C@H](C)[C@H](NC(=O)[C@H](Cc1ccc(O)cc1)NC(=O)[C@@H]1CCCN1C(=O)[C@H](CCCNC(=N)N)NC(=O)[C@@H](N)CCCNC(=N)N)C(=O)N[C@@H](CC(C)C)C(=O)O [NT(8-13), Neurotensin 8-13, reference compound]",IC50,3.9 nM
